Measurements as given in a melting point compilation (Tetko et al.).

SMILES: Cc1nnc(C2Cc3ccccc3CN2)o1 (configuration not stated)
- melting point: 65 to 67 °C

SMILES: CC1(C)C(=O)NC(=O)N1CC#N
- melting point: 147 to 149 °C

SMILES: CS(=O)(=O)Nc1cc(C(=O)O)ccc1Cl
- melting point: 275 to 277 °C

SMILES: CC(=O)Cn1c(CCl)nc2ccccc2c1=O
- melting point: 167 to 169 °C

SMILES: CN(C)c1ccc(C=C(C#N)C(=O)O)cc1
- melting point: 224 to 226 °C

SMILES: O=S(=O)(Cl)c1csc(-c2ccc(Cl)cc2)n1
- melting point: 93 to 95 °C

SMILES: CC(=O)c1ccc(NC(=O)NC2CC2)cc1
- melting point: 161 to 163 °C

SMILES: Cc1sc2ncnc(NCC(=O)O)c2c1C
- melting point: 244 to 246 °C

SMILES: Clc1ccc2nncn2n1
- melting point: 213 to 215 °C

SMILES: NC(CCN1CCCCC1)=NO
- melting point: 137 to 139 °C

SMILES: Nc1cccc(C(=O)NCc2ccccn2)c1
- melting point: 119 to 121 °C

SMILES: Cn1c(-c2ccccc2)cc2cc[nH]c(=O)c21
- melting point: 201 to 203 °C

SMILES: Brc1nnc(Cc2ccccc2)s1
- melting point: 79 to 81 °C

SMILES: Nn1c(S)nnc1C1CCCO1 (configuration not stated)
- melting point: 143 to 147 °C

SMILES: CCn1ncc(C#N)c1N
- melting point: 159 to 161 °C

SMILES: CC(C)C(Br)C(=O)NC1CCCCC1 (configuration not stated)
- melting point: 116 to 118 °C

SMILES: COc1ccc(C(=O)N2CCN(C)CC2)cc1N
- melting point: 114 to 116 °C

SMILES: COc1cc(N)c([N+](=O)[O-])cc1OC
- melting point: 174 to 176 °C

SMILES: COc1ccc(S(=O)(=O)N2CCc3ccccc32)cc1C(=O)O
- melting point: 136 to 138 °C

SMILES: CC(C)C1CNC(=O)C1 (configuration not stated)
- melting point: 98 to 100 °C

SMILES: CN(C)CC(C)(C)CNC(N)=S
- melting point: 121 to 123 °C

SMILES: Clc1ccc(-n2ccnc2)nn1
- melting point: 185 to 187 °C

SMILES: Cc1c(Br)ccc(S(N)(=O)=O)c1C
- melting point: 195 to 197 °C

SMILES: Fc1ccccc1Nc1nnc(S)s1
- melting point: 170 to 172 °C

SMILES: Cc1cccc(OC(C)C(=O)NN)c1C (configuration not stated)
- melting point: 140 to 144 °C

SMILES: Cc1n[nH]c(C(=O)O)c1O
- melting point: 184 to 186 °C

SMILES: Cc1cc(OS(C)(=O)=O)nc2c1cnn2C(C)C
- melting point: 78 to 80 °C

SMILES: O=C(O)c1cc(Cl)ccc1OC1CCCC1
- melting point: 95 to 97 °C

SMILES: Cc1ccc(-c2nn(-c3ccccc3)cc2/C=C/C(=O)O)o1
- melting point: 238 to 240 °C

SMILES: Nc1nc(=O)c2ccccc2s1
- melting point: 274 to 276 °C

SMILES: N#CC(NC(=O)c1ccccc1)C1CC1 (configuration not stated)
- melting point: 91 to 93 °C

SMILES: O=C(NC1CCCCNC1=O)OCC(F)(F)F (configuration not stated)
- melting point: 199 to 201 °C

SMILES: O=S(=O)(Nc1nc2ccccc2nc1Cl)c1cccc(Cl)c1
- melting point: 158 to 160 °C

SMILES: Nc1cc(S(=O)(=O)NC2CC2)ccc1O
- melting point: 119 to 121 °C

SMILES: COCc1csc(N)n1
- melting point: 109 to 111 °C

SMILES: NC(=S)Nc1cccc2c1CCCC2
- melting point: 165 to 167 °C

SMILES: O=[N+]([O-])c1cccc(Sc2ccccc2)c1
- melting point: 38 to 40 °C

SMILES: Cc1ccc(C(=O)CBr)cc1[N+](=O)[O-]
- melting point: 45 to 47 °C

SMILES: CCNC(=O)NCCCO
- melting point: 53 to 55 °C

SMILES: Cn1cccc1-c1csc(N)n1
- melting point: 79 to 81 °C

SMILES: CCN(CC)S(=O)(=O)c1cc(C(=O)O)ccc1Cl
- melting point: 118 to 120 °C

SMILES: Sc1nncn1-c1cccc(Cl)c1
- melting point: 187 to 189 °C

SMILES: Nc1cnn(-c2cccc(C(F)(F)F)c2)c1
- melting point: 82 to 84 °C

SMILES: Cn1nc(CCl)[nH]c1=O
- melting point: 139 to 141 °C

SMILES: CC(C)(C)OC(=O)NC1CCC2CNCC21 (configuration not stated)
- melting point: 109 to 111 °C

SMILES: CCOC(=O)c1ccn(-c2cccc(N)c2)n1
- melting point: 97 to 99 °C

SMILES: Nc1ccccc1C(=O)NCc1ccco1
- melting point: 76 to 78 °C

SMILES: CC(C)(C)Cc1noc2ncc(C(=O)O)cc12
- melting point: 231 to 233 °C

SMILES: COc1ccc2cc(C(=O)O)c(C)nc2c1
- melting point: 209 to 211 °C

SMILES: O=S(CCCl)c1ccccc1 (configuration not stated)
- melting point: 34 to 36 °C

SMILES: O=C(O)C1CCN(c2ccc(F)cc2)C1=O (configuration not stated)
- melting point: 145 to 147 °C

SMILES: Cc1nn(-c2ccccc2F)c(C)c1CC(=O)O
- melting point: 174 to 176 °C

SMILES: O=C(O)c1cnc(-c2ccc(Cl)s2)s1
- melting point: 235 to 237 °C

SMILES: CC(=O)N[C@@H](CC(=O)O)C(N)=O
- melting point: 159 to 161 °C

SMILES: N#Cc1ccccc1-c1ccc(CBr)cc1
- melting point: 127 to 129 °C

SMILES: CN(C)C(=O)c1ccccc1O
- melting point: 161 to 163 °C

SMILES: C[C@H](NC(=O)C1CCCCC1)C(=O)O
- melting point: 127 to 129 °C

SMILES: CCOC(=O)c1cnn(-c2ccc(C(F)(F)F)cn2)c1C(F)(F)F
- melting point: 98 to 100 °C

SMILES: Cc1csc(-c2ccc(N)cc2)n1
- melting point: 111 to 113 °C

SMILES: CC(C)c1cccc(N2CC(C(=O)O)CC2=O)c1 (configuration not stated)
- melting point: 126 to 128 °C

SMILES: Cc1nc2c(cnn2-c2ccc(F)cc2)c(=O)[nH]1
- melting point: 329 to 331 °C

SMILES: CCOC(=O)c1ccc(N2C(=O)Cc3ccccc3C2=O)cc1
- melting point: 174 to 176 °C

SMILES: COC(=O)c1ccc(C(=O)O)cn1
- melting point: 210 to 212 °C

SMILES: N#Cc1ccc(Cc2cnc(N)s2)c(C(F)(F)F)c1
- melting point: 196 to 198 °C

SMILES: NC(=NO)c1ccc(Oc2ccc(F)cc2)nc1
- melting point: 194 to 196 °C

SMILES: O=C1OCCN1c1cccc([N+](=O)[O-])c1
- melting point: 135 to 137 °C

SMILES: O=C(O)c1ccc2noc(-c3ccccc3)c2c1
- melting point: 242 to 244 °C

SMILES: NC(=S)c1ccc(Br)s1
- melting point: 169 to 171 °C

SMILES: COc1ccc(NC(=O)Cn2cc(N)cn2)cc1
- melting point: 151 to 153 °C

SMILES: O=C(CO)c1ccc(F)cc1F
- melting point: 95 to 97 °C

SMILES: Nc1cccc(NC(=O)CO)c1
- melting point: 150 to 152 °C

SMILES: CNS(=O)(=O)c1ccc2c(c1)CCN2
- melting point: 124 to 126 °C
